Source: patent EP3623009A1, “MODULATION OF TRF1 FOR BRAIN CANCER TREATMENT” (Fundación del Sector Público Estatal Centro Nacional de …, priority 2018, dated 2020)
Entries after “also recorded” stand apart in the source; their conditions may differ.

Assays:
p-AKT = p-AKT activation (p-AKT/AKT ratio, western blot) in h676 GSCs; assay type: cell-based, human; conditions: 24h at 1 µM
Description: In order to check whether the novel compounds act independently of this pathway, the present inventors treated the cells for 24h at 1 µM concentration and checked p-AKT activation.

h543 GSCs [1] = assay: Sphere formation assay in h543 patient-derived GSCs; assay type: cell-based, human; conditions: for sphere formation (dose-response): h543 GSCs, treated 7 days; for diameter of spheres / number of spheres: h543 patient-derived primary GSCs, compared to untreated controls
Description: (§1) Spheres were dissociated into single cells and seeded at a density of 50, 100, 200 and 400 cells/well in a 96 well plate. Neurosphere number was assessed after 7 days. Pictures were taken using Nikon Eclipse Ti-U microscope and neurosphere diameter was measured using NIS Elements BR software.

h676 GSCs [2] = assay: Sphere formation assay in h676 patient-derived GSCs; assay type: cell-based, human; conditions: for sphere formation (dose-response): h676 GSCs, treated 7 days; for diameter of spheres / number of spheres: h676 patient-derived primary GSCs, compared to untreated controls
Description: as §1

h676 GSCs [3] = assay: Drug combination (synergy) sphere study in h676 GSCs; assay type: cell-based, human; conditions: combinatorial matrix, spheres after 7 days, combination index
Description: Using this concentration as a reference point, the present inventors designed a combinatorial matrix using different concentrations of the compounds (e.g. 2x GI50, GI50 and ½ GI50) to study all the possible combinations. Combination index is calculated to establish if the combination is synergistic, additive or antagonistic (Fig. 50A).

U251 cells = assay: Sphere formation assay in U251 cells cultured with NSC media; assay type: cell-based, human; conditions: seven days, compared to DMSO
Description: as §1
Finally, the present inventors checked if the three chemical compounds had the ability to reduce stemness in these cells. They cultured U251 cells with NSC media in order to obtain a suspension culture enriched in stem cells. The inventors performed a sphere formation assay with these cells treated with ETP-47228, ETP-47037 and ETP-50946 or DMSO for seven days. […] Of note, all these effects recapitulated what the present inventors observed with Trf1 genetic downregulation (See 2.2).

h676 GSCs [4] = assay: Subcutaneous xenograft of h676 patient-derived GSCs in nude mice; assay type: in vivo
Description: (§2) h676 and h543 patient-derived GSCs were dissociated using a 200 µl pipet and resuspended in NeuroCult medium and matrigel in a 1:1 ratio in a concentration of 1000 cell/µl. Nude mice (athymic Nude-Foxn1^nu/nu from Harlan) were injected subcutaneously with 100 µl of the cell preparation. ETP-47037 (or vehicle) was orally administrated at a concentration of 75 mg/kg 5 days per week (see also section 8), starting one week after cell injection. The vehicle consisted in 10% N-methyl-2-pyrrolidone (NMP, Sigma Aldrich) and 90% poly ethylene glycol (PEG, Sigma Aldrich). Mice were weighted and tumors were measured every 2-4 days. Tumor area was determined by the following equation: A = π * (a/2) * (b/2), were a and b are tumor length and width respectively.
(§3) For oral administration, ETP-47037 was dissolved in 10% N-methyl-2-pyrrolidone (NMP, Sigma Aldrich) and 90% polyethylene glycol (PEG, Sigma Aldrich) at a concentration of 75 mg/kg.
Next, the present inventors set to address whether TRF1 chemical inhibition was able to block tumor growth in vivo. […] Thus, the two independent primary GSCs (h676 and h543) were injected subcutaneously into nude mice. One week after GSC injection, mice received oral administration of the vehicle (NMP 10%, PEG 90%) as placebo or the ETP-47037 TRF1 inhibitor 5 days/week, every week until human endpoint, and tumors were continuously followed-up by caliper measurements (Fig. 42A).

h543 GSCs [5] = assay: Subcutaneous xenograft of h543 patient-derived GSCs in nude mice; assay type: in vivo; conditions: oral 75 mg/kg 5 days/week from one week after injection, caliper, vs vehicle
Description: as §2, §3
Next, the present inventors set to address whether TRF1 chemical inhibition was able to block tumor growth in vivo. […] Thus, the two independent primary GSCs (h676 and h543) were injected subcutaneously into nude mice. […]

[6] = Tolerability and pathology of xenograft mice after long-term treatment; assay type: in vivo, nude mice
Description: as §2, with “respectively. […] Table1. Mice pathologies after long-term treatment with vehicle or ETP-47037” for “respectively.”

[7] = Brain blood barrier crossing (statement)
[8] = test system: K-Ras^G12V-induced lung tumors; conditions: Trf1 chemical inhibition; García-Beccaria et al. 2015; cited from earlier work
[9] = h676 xenograft, post-mortem, vs placebo

Compound	dependence on p-AKT (p-AKT)	synergic effect with the PI3Ki (ETP-47037) (h676 GSCs [3])	diameter of neurospheres (U251 cells)	number of neurospheres (U251 cells)	diameter of spheres (h543 GSCs [1])	number of spheres (h543 GSCs [1])	diameter of spheres (h676 GSCs [2])	number of spheres (h676 GSCs [2])	also measured
COc1cc(Nc2ncc3c(n2)-c2ccc(Cl)cc2C(c2c(F)cccc2OC)=NC3)ccc1C(=O)O [Alisertib]	act independently of p-AKT	–	–	–	–	–	–	–	–
CC(=O)O[C@@]12CO[C@@H]1C[C@H](O)[C@@]1(C)C(=O)[C@H](O)C3=C(C)[C@@H](OC(=O)[C@H](O)[C@@H](NC(=O)OC(C)(C)C)c4ccccc4)C[C@@](O)([C@@H](OC(=O)c4ccccc4)[C@H]21)C3(C)C [Docetaxel, reference compound]	act independently of p-AKT	significant synergic effect	–	–	–	–	–	–	sphere formation (dose-response) (h543 GSCs [1]): most potent compounds; sphere formation (dose-response) (h676 GSCs [2]): most potent compounds
CS(=O)(=O)N1CCN(Cc2cc3c(N4CCOCC4)nc(-c4cnc(N)nc4)cn3n2)CC1 [ETP-47037]	–	–	strong reduction	strong reduction	significant drastic reduction	significant drastic reduction	significant drastic reduction	significant drastic reduction	proliferation marker Ki67 (h676 GSCs [4]; GSCs derived xenograft tumors, Ki67-positive cells per field, vs vehicle): reduces proliferation; γH2AX DNA damage marker (h676 GSCs [4]; GSCs derived xenograft tumors, γH2AX-positive cells per field, vs vehicle): induces DNA damage; decrease of TRF1 protein levels (h676 GSCs [4]; h676 xenograft tumors, immunofluorescence, vs placebo): 80%; tumor areas (h676 GSCs [4]; h676 xenograft, oral 75 mg/kg 5 days/week from one week after injection, caliper, vs vehicle): drastic reduction; tumor size (h676 GSCs [4]; [9]): striking decrease; tumor weight (h676 GSCs [4]; [9]): striking decrease; histological analysis of the tumors (h676 GSCs [4]; xenograft tumors after treatment): decreased cellularity in the tumors, together with necrotic areas, apoptotic bodies, compacted chromatin and fragmented DNA; tumor areas (h543 GSCs [5]): drastic reduction; Mice pathologies after long-term treatment ([6]; one cell per mouse (Mice 1 to 4)): Mice 1: dermatitis, mild widening of lymphatic vessels in intestine; also recorded: Mice 2: dermatitis; also recorded: Mice 3: dermatitis; also recorded: Mice 4: dermatitis; signs of sickness or morbidity ([6]; treated cohorts compared to the placebo group): did not detect any signs of sickness or morbidity; crossing the brain blood barrier [7]: not crossing the brain blood barrier; growth of already established lung adenocarcinomas [8]: effectively impair the growth; mouse and tissue viability [8]: without affecting mouse and tissue viability
Cc1cnc2c(N3CCOCC3)nc(-c3ccc(NC(=O)Nc4ccc(C(=O)N5CCN(C)CC5)cc4)cc3)cn12 [ETP-47228]	–	–	strong reduction	strong reduction	significant drastic reduction	significant drastic reduction	significant drastic reduction	significant drastic reduction	growth of already established lung adenocarcinomas [8]: effectively impair the growth; mouse and tissue viability [8]: without affecting mouse and tissue viability
NC(Cc1ccccc1)c1csc(Nc2ncccn2)n1 (centres unmarked) [ETP-50946]	–	–	strong reduction	strong reduction	significant drastic reduction	significant drastic reduction	significant drastic reduction	significant drastic reduction	–
CN1CC[C@H](c2c(O)cc(O)c3c(=O)cc(-c4ccccc4Cl)oc23)[C@H](O)C1 [Flavopiridol]	act independently of p-AKT	–	–	–	–	–	–	–	–
C[C@@H](Oc1cc(-n2cnc3ccc(CN4CCN(C)CC4)cc32)sc1C(N)=O)c1ccccc1C(F)(F)F [GSK461364]	p-AKT dependent	–	–	–	–	–	–	–	–
Nc1ccn([C@@H]2O[C@H](CO)[C@@H](O)C2(F)F)c(=O)n1 [Gemcitabine, reference compound]	act independently of p-AKT	significant synergic effect	–	–	–	–	–	–	sphere formation (dose-response) (h543 GSCs [1]): most potent compounds; sphere formation (dose-response) (h676 GSCs [2]): most potent compounds
COc1ccc(-c2ccc3c(N4CCOCC4)nc(N4C[C@@H](C)O[C@@H](C)C4)nc3n2)cc1CO [KU-0063794]	p-AKT dependent	–	–	–	–	–	–	–	–
O=C(Nc1ccc2[nH]nc(-c3ccncc3)c2c1)[C@@H]1CCN(CC(=O)N2CCN(c3ccc(-c4ncccn4)cc3)CC2)C1 [SCH772984]	act independently of p-AKT	significant synergic effect	–	–	–	–	–	–	–
